# Measured values published in PMC7948422, “Repurposing p97 inhibitors for chemical modulation of the bacterial ClpB–DnaK bichaperone system” (The Journal of Biological Chemistry, 2020).
# “Also recorded” adds a separate entry of the source.
# Columns and labels:
# firefly luciferase = firefly luciferase (Photinus pyralis, UniProt P08659); assay: Native firefly luciferase activity; type: biochemical; conditions: 100 µM compound
# [1] = test system: ClpB-YFP in dnaK103 E. coli; assay: Confocal microscopy of ClpB-YFP localization; type: cell-based, Escherichia coli; conditions: dnaK103, 100-μM DBeQ, 45 °C 30 min
# Description: ClpB-YFP and Luciferase-YFP were expressed at low levels in E. coli strains ΔclpB, dnaK103, and dnaK756 as described before ([44]). The expression of ClpB-YFP and YFP-Luciferase was initiated by addition of 200-μM IPTG or 0.02% (w/v) arabinose, respectively. The bacterial cells were cultured at 30 °C with 100-μM DBeQ or DMSO only. Protein translation was stopped by addition of erythromycin (30 μg/ml), and each culture was divided into two samples. One sample remained at 30 °C (control), whereas the other sample was transferred to 45 °C for 30 min (heat-shock conditions).
# A thin layer of 1% agarose (TopVision Low Melting Point Agarose, Thermo Scientific) was prepared on a clean microscope glass slide. A small drop of 1% agarose was placed near the frosted end of the glass slide while bringing a second glass slide at a 30 to 45° angle from above, allowing the agarose drop to spread along the contact edge. […] An E. coli culture sample (1 μl) was immediately placed on the agarose-covered glass slide, covered with a cover slip, and used for fluorescence imaging.
# Fluorescence imaging was performed using a Carl Zeiss LSM 880 Airyscan confocal microscope equipped with a Plan-Apochromat 63x/1.40 Oil DIC M27 objective coupled with a YFP Filter (excitation at 514 nm, emission at 561 nm, laser strength 0.98%). […]
# DnaK–DnaJ–GrpE (KJE) = target: T1, DnaK–DnaJ–GrpE (KJE) (Escherichia coli, UniProt P0A6Y8); assay: Aggregate reactivation assay with KJE alone; type: biochemical
# T1 construct: full-length E. coli DnaK (residues 1–638); made in house; host or cells: E. coli BL21(DE3) for DnaK
# T1 sequence (P0A6Y8 whole entry, the tested form may be a part): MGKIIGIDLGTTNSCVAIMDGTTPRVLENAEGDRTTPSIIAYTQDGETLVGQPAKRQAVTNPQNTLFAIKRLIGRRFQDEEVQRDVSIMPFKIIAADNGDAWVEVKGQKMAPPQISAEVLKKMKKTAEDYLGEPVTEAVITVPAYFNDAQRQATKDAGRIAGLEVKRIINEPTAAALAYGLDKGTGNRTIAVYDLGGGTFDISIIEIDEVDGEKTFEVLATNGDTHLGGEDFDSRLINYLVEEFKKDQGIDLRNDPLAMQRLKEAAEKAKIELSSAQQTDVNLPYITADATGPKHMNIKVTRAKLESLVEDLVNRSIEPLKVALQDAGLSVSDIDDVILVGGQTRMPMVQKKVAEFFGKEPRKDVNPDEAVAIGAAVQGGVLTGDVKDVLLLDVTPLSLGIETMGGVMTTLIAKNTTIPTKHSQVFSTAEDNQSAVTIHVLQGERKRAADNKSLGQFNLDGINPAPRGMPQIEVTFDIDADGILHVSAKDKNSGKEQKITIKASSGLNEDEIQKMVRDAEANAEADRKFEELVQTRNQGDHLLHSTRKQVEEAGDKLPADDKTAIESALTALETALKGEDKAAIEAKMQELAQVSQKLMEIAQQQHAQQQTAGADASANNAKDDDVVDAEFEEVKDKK
# Description: G6PDH was chemically denatured by mixing 5 μl of the G6PDH stock solution (441 μM) with 5 μl of buffer A (10 M urea, 16% glycerol, 40-mM DTT) preheated at 47 °C. The samples of G6PDH in buffer A were incubated for 5 min at 47 °C. Subsequently, 5 μl of denatured G6PDH was mixed with 95 μl of buffer B (50-mM Tris-HCl, pH 7.4, 20-mM Mg(OAc)2, 30-mM KCl, 1-mM EDTA, 1-mM β-mercaptoethanol) preheated at 47 °C to initiate protein refolding, which, under these conditions, is inefficient and leads to misfolding and aggregation of G6PDH ([69]). G6PDH aggregate production was arrested after 1 min (for refolding by KJE) or 15 min (for refolding by KJE with ClpB) by transferring into ice for 2 min. […] The plate was inserted into Synergy H1 plate reader (BioTek, Winooski, VT) with the chamber temperature at 30 °C, and the sample absorbance at 340 nm was measured after 10 min. The amount of NADPH produced was calculated based on the NADPH molar extinction coefficient, Ɛ340 = 6220 [M^−1 ⋅ cm^−1].
# Firefly luciferase (220 μM) was diluted 300-fold in PBS buffer with 1 mg/ml bovine serum albumin and then incubated for 12 min at 45 °C. […] Luminescence was measured using Synergy H1 plate reader (BioTek, Winooski, VT).
# E. coli MC4100ΔclpB = assay: Bacterial growth and viability, MC4100ΔclpB; type: cell-based, Escherichia coli; conditions: 37 °C
# Description: E. coli MC4100, MC4100ΔclpB, dnaK103, and dnaK756 strains were used to determine an influence of DBeQ on bacterial growth and viability. Bacteria were maintained in the LB media, and in the case of the MC4100ΔclpB strain, LB was supplemented with 30 μg/ml kanamycin. All experiments were initiated by preparing overnight cultures inoculated from single colonies and grown at 37 °C. The dnaK103 and dnaK756 overnight cultures were grown at 30 °C. On the following day, the cultures were diluted 100-fold in 10 ml of LB without antibiotics and incubated at 37 °C. The culture optical density was monitored at 600 nm. When absorbance at 600 nm reached 0.4, the culture was divided into 1-ml aliquots and supplemented with 10 μl of DMSO or different concentrations of DBeQ in DMSO. The samples were immediately transferred into an incubator/shaker at temperature 37, 45, or 50 °C. Bacteria were cultured for up to 4 h with shaking (200 RPM). At specific time points, 100 μl of each culture was withdrawn and serially diluted in sterile 0.9% NaCl up to 10^6-fold dilution. To estimate the number of viable cells, 5 μl or 10 μl of the diluted cultures was spread on the LB-agar plate without an antibiotic. […] On the following day, the bacterial colonies were counted and the colony-forming units/ml were calculated.
# firefly luciferase, sequence (P08659 whole entry): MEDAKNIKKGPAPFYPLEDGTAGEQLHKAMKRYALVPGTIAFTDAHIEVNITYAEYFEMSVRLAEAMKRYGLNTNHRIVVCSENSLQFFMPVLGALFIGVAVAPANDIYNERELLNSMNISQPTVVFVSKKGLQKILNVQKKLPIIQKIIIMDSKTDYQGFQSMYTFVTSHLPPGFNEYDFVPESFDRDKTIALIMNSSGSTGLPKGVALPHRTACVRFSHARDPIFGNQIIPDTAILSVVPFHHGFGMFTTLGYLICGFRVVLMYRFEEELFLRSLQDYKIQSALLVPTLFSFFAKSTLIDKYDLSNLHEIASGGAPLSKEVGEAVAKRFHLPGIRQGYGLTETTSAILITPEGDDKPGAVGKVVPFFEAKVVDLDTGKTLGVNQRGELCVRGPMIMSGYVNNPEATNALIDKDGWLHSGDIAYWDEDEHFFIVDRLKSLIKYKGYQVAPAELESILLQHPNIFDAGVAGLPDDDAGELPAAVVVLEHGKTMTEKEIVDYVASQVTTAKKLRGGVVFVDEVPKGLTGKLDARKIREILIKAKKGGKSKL
structure (smiles),measurement,setting,value
"c1ccc(CNc2nc(NCc3ccccc3)c3ccccc3n2)cc1 [DBeQ, N^2,N^4-dibenzylquinazoline-2,4-diamine]",effect on native luciferase activity,firefly luciferase,not affected
same,ClpB-YFP localization with aggregates,[1],ClpB colocalizes with the aggregates even in dnaK103
same,inhibition of DnaK chaperone activity in vitro,DnaK–DnaJ–GrpE (KJE),inhibited
same,inhibition of ClpB-independent reactivation of aggregated luciferase,"DnaK–DnaJ–GrpE (KJE); KJE alone, 20 min, 25 °C",inhibited
same,effect on growth of ΔclpB strain,E. coli MC4100ΔclpB,nearly eliminated; also recorded: effects were eliminated
